Measured values published in patent US7560468B2, “Substituted 1,4,8-triazaspiro[4,5]decan-2-one compounds” (Gruenenthal GmbH, priority 2004, dated 2009).

Columns and labels:
[1] = tested on: batrachotoxin (BTX) binding site of the sodium channel; assay: Affinity to the batrachotoxin (BTX) binding site of the sodium channel; conditions: rat cerebrocortex synaptosomes, [3H]-batrachotoxinin A20 α-benzoate 10 nM; test concentration not given
5-HT transporter = target: T1, 5-HT transporter (Rattus norvegicus, UniProt P31652); assay: Inhibition of 5-HT uptake in synaptosomes; assay type: biochemical; conditions: for inhibition at 1 µM: read-out: Uptake_5-HT, rat, 1 μM, % inhibition
T1 construct: from tissue; host or cells: rat brain synaptosomes (marrow/medulla and pons), P2 fraction

NA transporter = assay: Inhibition of noradrenalin uptake in synaptosomes; assay type: biochemical

T1 sequence (P31652 whole entry): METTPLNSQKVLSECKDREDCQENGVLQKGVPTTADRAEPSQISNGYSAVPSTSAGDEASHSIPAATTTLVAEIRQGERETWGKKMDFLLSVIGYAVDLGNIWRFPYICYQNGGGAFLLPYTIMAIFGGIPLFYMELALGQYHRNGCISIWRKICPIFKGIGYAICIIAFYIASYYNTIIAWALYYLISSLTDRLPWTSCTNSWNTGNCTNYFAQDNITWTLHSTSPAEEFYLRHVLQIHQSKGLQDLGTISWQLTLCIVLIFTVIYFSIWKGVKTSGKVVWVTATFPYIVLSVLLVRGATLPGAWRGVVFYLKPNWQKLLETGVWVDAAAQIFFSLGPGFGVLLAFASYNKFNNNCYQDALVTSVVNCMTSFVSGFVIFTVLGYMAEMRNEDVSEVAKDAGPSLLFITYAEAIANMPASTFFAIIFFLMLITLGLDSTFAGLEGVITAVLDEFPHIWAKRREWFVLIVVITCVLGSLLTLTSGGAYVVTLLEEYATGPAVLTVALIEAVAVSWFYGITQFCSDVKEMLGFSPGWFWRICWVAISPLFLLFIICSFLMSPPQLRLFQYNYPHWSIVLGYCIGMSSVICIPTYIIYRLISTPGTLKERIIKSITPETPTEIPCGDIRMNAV

SMILES	BTX Inhibition [1]	inhibition at 1 µM (5-HT transporter) [%]	Uptake (NA), rat, 10 μM, % inhibition (NA transporter) [%]	Uptake_5-HT, rat, 1 μM, % inhibition (5-HT transporter) [%]
CCCCS(=O)(=O)N1CCC2(CC1)NCC(=O)N2Cc1ccc(C(=O)OC)cc1 [Example 53, Methyl 4-[8-(butan-1-sulfonyl)-2-oxo-1,4,8-triazaspiro[4,5]dec-1-ylmethyl]-benzoate]	31	45	30	–
CCOC(=O)CN1C(=O)C(Cc2ccccc2)NC12CCN(S(=O)(=O)c1ccccc1C(F)(F)F)CC2 (stereo not drawn) [Example 65, Ethyl[3-benzyl-2-oxo-8-(2-trifluoromethylbenzolsulfonyl)-1,4,8-triazaspiro[4,5]dec-1-yl]-acetate]	51	–	33	71
CCOC(=O)CN1C(=O)C(Cc2ccccc2)NC12CCN(S(=O)(=O)Cc1ccccc1)CC2 (stereo not drawn) [Example 68, Ethyl(3-benzyl-2-oxo-8-benzolmethansulfonyl-1,4,8-triazaspiro[4,5]dec-1-yl)acetate]	47	–	31	69
COc1ccccc1NC(=S)N1CCC2(CC1)NC(Cc1ccccc1)C(=O)N2Cc1ccccc1F (stereo not drawn) [Example 108, 3-Benzyl-1-(2-fluorobenzyl)-2-oxo-1,4,8-triazaspiro[4,5]decan-8-thiocarboxylic acid (2-methoxy-benzol)amide]	86	–	31	86
CCCCN1C(=O)C(C(C)C)NC12CCN(C(=S)NCc1ccc(Cl)cc1)CC2 (stereo not drawn) [Example 150, 1-Butyl-3-isopropyl-2-oxo-1,4,8-triazaspiro[4,5]decan-8-thiocarboxylic acid 4-chlorobenzylamide]	73	51	30	–
CSCCC1NC2(CCN(C(=S)Nc3ccccc3C)CC2)N(Cc2ccc3ccccc3c2)C1=O (stereo not drawn) [Example 151, 3-(2-Methylsulfanylethyl)-1-naphthalin-2-ylmethyl-2-oxo-1,4,8-triazaspiro[4,5]decan-8-thiocarboxylic acid o-tolylamide]	84	64	42	–
CC(C)C1NC2(CCN(C(=S)Nc3c(F)c(F)c(F)c(F)c3F)CC2)N(Cc2ccccc2)C1=O (stereo not drawn) [Example 154, 1-Benzyl-3-isopropyl-2-oxo-1,4,8-triazaspiro[4,5]decan-8-thiocarboxylic acid pentafluorobenzolamide-amide]	61	–	43	34
CCCCN1C(=O)C(CCSC)NC12CCN(C(=S)Nc1ccc(OCC)cc1)CC2 (stereo not drawn) [Example 158, 1-Butyl-3-(2-methylsulfanylethyl)-2-oxo-1,4,8-triazaspiro[4,5]decan-8-thiocarboxylic acid (4-ethoxy-benzol)amide]	35	–	41	33
CCOC(=O)CN1C(=O)C(Cc2ccccc2)NC12CCN(C(=S)NCC1CCCCC1)CC2 (stereo not drawn) [Example 159, Ethyl[3-benzyl-8-(cyclohexylmethylthiocarbamoyl)-2-oxo-1,4,8-triazaspiro[4,5]dec-1-yl]-acetate]	84	33	36	–
CSCCC1NC2(CCN(C(=S)Nc3cccc(C(C)=O)c3)CC2)N(Cc2ccc3ccccc3c2)C1=O (stereo not drawn) [Example 165, 3-(2-Methylsulfanylethyl)-1-naphthalin-2-ylmethyl-2-oxo-1,4,8-triazaspiro[4,5]decan-8-thiocarboxylic acid (3-acetylbenzol)amide]	64	–	48	42
Cc1cccc(NC(=S)N2CCC3(CC2)NC(Cc2ccccc2)C(=O)N3Cc2ccccc2F)c1 (stereo not drawn) [Example 166, 3-Benzyl-1-(2-fluorobenzyl)-2-oxo-1,4,8-triazaspiro[4,5]decan-8-thiocarboxylic acid m-tolylamide]	85	64	39	–
CCOC(=O)NC(=S)N1CCC2(CC1)NC(Cc1ccccc1)C(=O)N2Cc1ccccc1F (stereo not drawn) [Example 174, Ethyl[3-benzyl-1-(2-fluorobenzyl)-2-oxo-1,4,8-triazaspiro[4,5]decan-8-carbothioyl]-carbamate]	38	31	39	–
CCCCN1C(=O)C(CCSC)NC12CCN(C(=S)Nc1ccc(F)cc1)CC2 (stereo not drawn) [Example 189, 1-Butyl-3-(2-methylsulfanylethyl)-2-oxo-1,4,8-triazaspiro[4,5]decan-8-thiocarboxylic acid (4-fluorobenzol)amide]	41	–	30	66
CSCCC1NC2(CCN(C(=O)Nc3cccc(C#N)c3)CC2)N(Cc2ccccc2)C1=O (stereo not drawn) [Example 208, 1-Benzyl-3-(2-methylsulfanylethyl)-2-oxo-1,4,8-triazaspiro[4,5]decan-8-carboxylic acid (3-cyanobenzol)amide]	41	–	49	45
CCCCN1C(=O)C(CCSC)NC12CCN(C(=O)Nc1cc(OC)c(OC)c(OC)c1)CC2 (stereo not drawn) [Example 210, 1-Butyl-3-(2-methylsulfanylethyl)-2-oxo-1,4,8-triazaspiro[4,5]decan-8-carboxylic acid (3,4,5-trimethoxy-benzol)amide]	44	–	36	32
CSCCC1NC2(CCN(C(=O)Nc3ccc(Cl)c(C(F)(F)F)c3)CC2)N(Cc2ccccc2)C1=O (stereo not drawn) [Example 211, 1-Benzyl-3-(2-methylsulfanylethyl)-2-oxo-1,4,8-triazaspiro[4,5]decan-8-carboxylic acid (4-chloro-3-trifluoromethylbenzol)amide]	85	–	40	45
CCOc1ccc(NC(=O)N2CCC3(CC2)NC(CCSC)C(=O)N3Cc2ccccc2)cc1 (stereo not drawn) [Example 213, 1-Benzyl-3-(2-methylsulfanylethyl)-2-oxo-1,4,8-triazaspiro[4,5]decan-8-carboxylic acid (4-ethoxy-benzol)amide]	41	–	37	39
CSCCC1NC2(CCN(C(=O)Nc3cccc(C(C)=O)c3)CC2)N(Cc2ccccc2)C1=O (stereo not drawn) [Example 214, 1-Benzyl-3-(2-methylsulfanylethyl)-2-oxo-1,4,8-triazaspiro[4,5]decan-8-carboxylic acid (3-acetylbenzol)amide]	40	–	36	51
CCCCN1C(=O)C(C(C)C)NC12CCN(C(=O)Nc1cccc(C(=O)OCC)c1)CC2 (stereo not drawn) [Example 215, Ethyl 3-[(1-butyl-3-isopropyl-2-oxo-1,4,8-triazaspiro[4,5]decan-8-carbonyl)amino]-benzoate]	51	29	33	–
CCCCN1C(=O)C(CCSC)NC12CCN(C(=O)NCc1ccc(Cl)c(Cl)c1)CC2 (stereo not drawn) [Example 219, 1-Butyl-3-(2-methylsulfanylethyl)-2-oxo-1,4,8-triazaspiro[4,5]decan-8-carboxylic acid 3,4-dichlorobenzylamide]	70	37	42	–
C=CCN1C(=O)C(C(C)C)NC12CCN(C(=O)Nc1ccc(OC(F)(F)F)cc1)CC2 (stereo not drawn) [Example 220, 1-Allyl-3-isopropyl-2-oxo-1,4,8-triazaspiro[4,5]decan-8-carboxylic acid (4-trifluoromethoxy-benzol)amide]	44	–	39	39
CSCCC1NC2(CCN(C(=O)Nc3ccccc3)CC2)N(Cc2ccccc2C#N)C1=O (stereo not drawn) [Example 224, 1-(2-Cyanobenzyl)-3-(2-methylsulfanylethyl)-2-oxo-1,4,8-triazaspiro[4,5]decan-8-carboxylic acid benzolamide]	30	–	38	37
CCOC(=O)CN1C(=O)C(Cc2ccccc2)NC12CCN(C(=O)NCc1ccc(Cl)c(Cl)c1)CC2 (stereo not drawn) [Example 225, Ethyl[3-benzyl-8-(3,4-dichlorobenzylcarbamoyl)-2-oxo-1,4,8-triazaspiro[4,5]dec-1-yl]-acetate]	77	43	33	–
COc1cccc(NC(=O)N2CCC3(CC2)NC(CCSC)C(=O)N3Cc2cccc(C#N)c2)c1 (stereo not drawn) [Example 236, 1-(3-Cyanobenzyl)-3-(2-methylsulfanylethyl)-2-oxo-1,4,8-triazaspiro[4,5]decan-8-carboxylic acid (3-methoxy-benzol)amide]	42	–	34	32
